Data published in US20230053688A1, “METHODS TO ALTER LATENCY IN EBV+ MALIGNANCIES” (Cornell University, priority 2020, published 2023).
Structures can show the parent of a compound that is named as a salt. Where two headings read alike, the source gives them in different places.

Test system: LMP1 expression in Kem I cells
Assay: microbe, parasite or virus in culture
Type: cell-based, EBV
Conditions: for fold induction at 2.5 µM / fold induction at 1 µM: human gammaherpesvirus 4, 48 h; for Average LMP1 Fold Increase / Replicate 1-LMP1 Fold Increase / Replicate 2-LMP1 Fold Increase: Kem I cells, 48 hours; for Average LMP1 Fold Increase: average of replicates 1 and 2; for Replicate 1-LMP1 Fold Increase / Replicate 2-LMP1 Fold Increase: fold change in LMP1 transcript vs vehicle
[1] = read-out: Average LMP1 Fold Increase, Kem I cells, 2.5 uM, 48 hours, average of replicates 1 and 2
[2] = read-out: Replicate 1-LMP1 Fold Increase, Kem I cells, 2.5 uM, 48 hours, fold change in LMP1 transcript vs vehicle
[3] = read-out: Replicate 2-LMP1 Fold Increase, Kem I cells, 2.5 uM, 48 hours, fold change in LMP1 transcript vs vehicle
[4] = read-out: Average LMP1 Fold Increase, Kem I cells, 1 uM, 48 hours, average of replicates 1 and 2
[5] = read-out: Replicate 1-LMP1 Fold Increase, Kem I cells, 1 uM, 48 hours, fold change in LMP1 transcript vs vehicle
[6] = read-out: Replicate 2-LMP1 Fold Increase, Kem I cells, 1 uM, 48 hours, fold change in LMP1 transcript vs vehicle

SMILES | fold induction at 2.5 µM [1] | fold induction at 2.5 µM [2] | fold induction at 2.5 µM [3] | Average LMP1 Fold Increase (2.5 uM) | Replicate 1-LMP1 Fold Increase (2.5 uM) | Replicate 2-LMP1 Fold Increase (2.5 uM) | other results
COc1cccc2c1C(=O)c1c(O)c3c(c(O)c1C2=O)C[C@@](O)(C(C)=O)C[C@@H]3O[C@H]1C[C@H](N)[C@H](O)[C@H](C)O1 [Daunorubicin HCl] | 242 | 221 | 262 | – | – | – | –
COc1cc2nc(N3CCN(C(=O)C4COc5ccccc5O4)CC3)nc(N)c2cc1OC (stereo not drawn) [Doxazosin Mesylate] | 0.81 | 0.67 | 0.95 | – | – | – | –
COc1cccc2c1C(=O)c1c(O)c3c(c(O)c1C2=O)C[C@@](O)(C(=O)CO)C[C@@H]3O[C@H]1C[C@H](N)[C@H](O)[C@H](C)O1 [Doxorubicin] | – | – | – | – | – | – | fold induction at 1 µM [4]: 47; fold induction at 1 µM [5]: 39.2; fold induction at 1 µM [6]: 54.8
C[C@]12C=CC(=O)N[C@@H]1CC[C@@H]1[C@@H]2CC[C@]2(C)[C@@H](C(=O)Nc3cc(C(F)(F)F)ccc3C(F)(F)F)CC[C@@H]12 [Dutasteride] | 0.39 | 0.38 | 0.41 | – | – | – | –
O=C(N/N=C/c1ccc(O)c(O)c1)c1cc2ccccc2cc1O [Dynasore] | 0.77 | 0.64 | 0.89 | – | – | – | –
CCn1c2ccccc2c2cc(Nc3ccnc(NCCCN4CCOCC4)n3)ccc21 [EHop-016] | – | – | – | 1.06 | 0.70 | 1.43 | –
CCN(c1cc(-c2ccc(CN3CCOCC3)cc2)cc(C(=O)NCc2c(C)cc(C)[nH]c2=O)c1C)C1CCOCC1 [EPZ 6438] | – | – | – | – | – | – | fold induction at 1 µM [4]: 24.5; fold induction at 1 µM [5]: 2.14; fold induction at 1 µM [6]: 46.9
CCN(c1cc(C#CCN2CCOCC2)cc(C(=O)NCc2c(C)cc(C)[nH]c2=O)c1C)[C@H]1CC[C@H](N(C)CCOC)CC1 [EPZ 011989] | – | – | – | – | – | – | fold induction at 1 µM [4]: 30.5; fold induction at 1 µM [5]: 4.1; fold induction at 1 µM [6]: 56.9
COc1cccc(C=NCCN=Cc2cccc(OC)c2[O-])c1[O-].[Cl-].[Mn+3] [EUK 134] | – | – | – | 0.90 | 0.85 | 0.95 | –
NC(=O)C1CCCc2c1[nH]c1ccc(Cl)cc21 (stereo not drawn) [EX 527 (Selisistat)] | – | – | – | 0.81 | 0.24 | 1.38 | –
COc1cc2c(cc1Cc1cccc(Cl)c1F)c(=O)c(C(=O)O)cn2[C@H](CO)C(C)C [Elvitegravir (GS-9137, JTK-303)] | – | – | – | 1.23 | 1.25 | 1.20 | –
CCCCCCCCCCCC1=C(O)C(=O)C=C(O)C1=O [Embelin] | 0.59 | 0.43 | 0.74 | – | – | – | –
OC[C@H]1O[C@@H](c2ccc(Cl)c(Cc3ccc(O[C@H]4CCOC4)cc3)c2)[C@H](O)[C@@H](O)[C@@H]1O [Empagliflozin (BI 10773)] | – | – | – | 0.58 | 0.67 | 0.50 | –
C[C@H](N[C@@H](CCc1ccccc1)C(=O)O)C(=O)N1CCC[C@H]1C(=O)O.O.O [Enalaprilat Dihydrate] | – | – | – | 0.51 | 0.51 | 0.52 | –
CCN(CC)C(=O)/C(C#N)=C/c1cc(O)c(O)c([N+](=O)[O-])c1 [Entacapone] | 0.6 | 0.49 | 0.71 | – | – | – | –
CNC(=O)c1ccc(N2C(=S)N(c3ccc(C#N)c(C(F)(F)F)c3)C(=O)C2(C)C)cc1F [Enzalutamide (MDV3100)] | – | – | – | 0.96 | 0.88 | 1.05 | –
Cn1cc(C2=C(c3cn(C4CCN(Cc5ccccn5)CC4)c4ccccc34)C(=O)NC2=O)c2ccccc21 [Enzastaurin (LY317615)] | – | – | – | 25.14 | 0.48 | 49.80 | –
CCOc1ccccc1-n1c(C(C)N2CCN(C(=O)COc3ccc(Cl)cc3)CC2)nc2ccccc2c1=O (stereo not drawn) [Erastin] | 0.73 | 0.7 | 0.75 | – | – | – | –
COc1ccc2nc([S@@+]([O-])Cc3ncc(C)c(OC)c3C)[nH]c2c1 [Esomeprazole Sodium] | 0.3 | 0.16 | 0.44 | – | – | – | –
CCc1cccc2c3c([nH]c12)C(CC)(CC(=O)O)OCC3 (stereo not drawn) [Etodolac] | 0.84 | 0.57 | 1.1 | – | – | – | –
CCOC(=O)c1cncn1[C@H](C)c1ccccc1 [Etomidate] | 0.5 | 0.56 | 0.44 | – | – | – | –

SMILES | fold induction at 2.5 µM [1] | fold induction at 2.5 µM [2] | fold induction at 2.5 µM [3] | Average LMP1 Fold Increase (2.5 uM) | Replicate 1-LMP1 Fold Increase (2.5 uM) | Replicate 2-LMP1 Fold Increase (2.5 uM) | other results
CO[C@H]1C[C@@H]2CC[C@@H](C)[C@@](O)(O2)C(=O)C(=O)N2CCCC[C@H]2C(=O)O[C@H]([C@H](C)C[C@@H]2CC[C@@H](OCCO)[C@H](OC)C2)CC(=O)[C@H](C)/C=C(\C)[C@@H](O)[C@@H](OC)C(=O)[C@H](C)C[C@H](C)/C=C/C=C/C=C/1C [Everolimus (RAD001)] | – | – | – | 1.65 | 2.00 | 1.31 | –
C=C1C[C@@H]2[C@H](CC[C@]3(C)C(=O)CC[C@@H]23)[C@@]2(C)C=CC(=O)C=C12 [Exemestane] | 0.7 | 0.53 | 0.86 | – | – | – | –
Cc1nc(C(=O)NCC(=O)O)c(O)c2ccc(Oc3ccccc3)cc12 [FG-4592] | 0.22 | 0.19 | 0.24 | – | – | – | –
CC1=C(C(=O)OC2CCCCC2)C(c2ccc([N+](=O)[O-])cc2)C2=C(CC(C)(C)CC2=O)N1 (stereo not drawn) [FLI-06] | – | – | – | 0.46 | 0.19 | 0.73 | –
CCOC(=O)C1=C(C)NC(C)=C(C(=O)OC)C1c1cccc(Cl)c1Cl (stereo not drawn) [Felodipine] | 0.77 | 0.84 | 0.69 | – | – | – | –
CCOC(=O)c1ccc(NC2CCCCC2)c(N)c1 [Ferrostatin-1 (Fer-1)] | – | – | – | 0.22 | 0.24 | 0.19 | –
CC(C)(C)NC(=O)[C@H]1CC[C@H]2[C@@H]3CC[C@H]4NC(=O)C=C[C@]4(C)[C@H]3CC[C@]12C [Finasteride] | 0.66 | 0.51 | 0.81 | – | – | – | –
CCCCCCCCc1ccc(CCC(N)(CO)CO)cc1.Cl [Fingolimod (FTY720) HCl] | – | – | – | 0.69 | 0.33 | 1.06 | –
CC(C)n1c(/C=C/C(O)CC(O)CC(=O)O)c(-c2ccc(F)cc2)c2ccccc21 (stereo not drawn) [Fluvastatin Sodium] | 0.94 | 0.84 | 1.04 | – | – | – | –
COCCCC/C(=N\OCCN)c1ccc(C(F)(F)F)cc1 [Fluvoxamine maleate] | 0.67 | 0.97 | 0.37 | – | – | – | –
COc1ccc(C[C@@H](C)NC[C@H](O)c2ccc(O)c(NC=O)c2)cc1.COc1ccc(C[C@@H](C)NC[C@H](O)c2ccc(O)c(NC=O)c2)cc1.O=C(O)/C=C/C(=O)O [Formoterol Hemifumarate] | – | – | – | 1.83 | 1.71 | 1.96 | –
C=C[C@@]1(C)CC(=O)[C@]2(O)[C@@]3(C)[C@@H](O)CCC(C)(C)[C@@H]3[C@H](O)[C@H](OC(C)=O)[C@@]2(C)O1 [Forskolin] | 1.25 | 1.39 | 1.11 | – | – | – | –
COc1cc(Nc2ncc(F)c(Nc3ccc4c(n3)N(COP(=O)(O)O)C(=O)C(C)(C)O4)n2)cc(OC)c1OC [Fostamatinib (R788)] | – | – | – | 0.67 | 0.24 | 1.11 | –
C[C@]12CC[C@@H]3c4ccc(O)cc4C[C@@H](CCCCCCCCC[S+]([O-])CCCC(F)(F)C(F)(F)F)[C@H]3[C@@H]1CC[C@@H]2O (stereo partly drawn) [Fulvestrant] | 0.17 | 0.16 | 0.18 | – | – | – | –
Cc1nc(-c2cn3c(n2)-c2ccc(-c4cnn(C(C)(C)C(N)=O)c4)cc2OCC3)n(C(C)C)n1 [GDC-0032] | – | – | – | – | – | – | Average LMP1 Fold Increase (1 uM): 1.23; Replicate 1-LMP1 Fold Increase (1 uM): 1.86; Replicate 2-LMP1 Fold Increase (1 uM): 0.59
CC(C)NC[C@@H](C(=O)N1CCN(c2ncnc3c2[C@H](C)C[C@H]3O)CC1)c1ccc(Cl)cc1 [GDC-0068] | – | – | – | 0.27 | 0.27 | 0.27 | –
CN[C@@H](C)C(=O)N[C@H](C(=O)N1CCC[C@H]1C(=O)Nc1snnc1-c1ccccc1)C1CCCCC1 [GDC-0152] | – | – | – | 0.68 | 0.76 | 0.59 | –
CS(=O)(=O)N1CCN(Cc2cc3nc(-c4cccc5[nH]ncc45)nc(N4CCOCC4)c3s2)CC1 [GDC-0941] | – | – | – | 0.92 | 0.75 | 1.09 | –
NC(=O)c1cccc(-c2cc(Nc3ccc(OC(F)(F)F)cc3)ncn2)c1 [GNF-2] | – | – | – | 1.06 | 0.21 | 1.91 | –
CC1=C(C(=O)Nc2cc3cn[nH]c3cc2F)C(c2ccc(C(F)(F)F)cc2)CC(=O)N1 (stereo not drawn) [GSK429286A] | – | – | – | 0.57 | 0.60 | 0.54 | –
